# According to PubChem BioAssay (NCI):
#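 The compound was tested at five concentrations on cells cultured in 96-well plates, with a 48-hour exposure period. GI50 = concentration required for 50% inhibition of growth. TGI is the concentration that stops growth completely.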
# Experiments:
# Experiment in all cases: inhibition of tumour cell growth, NCI panel, 48 h
# MCF7 breast = tested on: MCF7 breast
# SR leukemia = tested on: SR leukemia
# HL-60(TB) leukemia = tested on: HL-60(TB) leukemia
# SW-620 colon = tested on: SW-620 colon
# OVCAR-4 ovarian = tested on: OVCAR-4 ovarian
# MALME-3M melanoma = tested on: MALME-3M melanoma
# KM12 colon = tested on: KM12 colon
# NCI-H460 lung = tested on: NCI-H460 lung
# T-47D breast = tested on: T-47D breast
# K-562 leukemia = tested on: K-562 leukemia
# NCI-H522 lung = tested on: NCI-H522 lung
# OVCAR-5 ovarian = tested on: OVCAR-5 ovarian
# HCC-2998 colon = tested on: HCC-2998 colon
# UACC-62 melanoma = tested on: UACC-62 melanoma
# DU-145 prostate = tested on: DU-145 prostate
# SK-MEL-5 melanoma = tested on: SK-MEL-5 melanoma
# HT29 colon = tested on: HT29 colon
# A549 NSCLC = tested on: A549 NSCLC
# LOX IMVI melanoma = tested on: LOX IMVI melanoma
# A498 renal = tested on: A498 renal
# TK-10 renal = tested on: TK-10 renal
# OVCAR-8 ovarian = tested on: OVCAR-8 ovarian
# UO-31 renal = tested on: UO-31 renal
# CCRF-CEM leukemia = tested on: CCRF-CEM leukemia
# SNB-19 CNS = tested on: SNB-19 CNS
# HCT-15 colon = tested on: HCT-15 colon
# HOP-92 NSCLC = tested on: HOP-92 NSCLC
# BT-549 breast = tested on: BT-549 breast
# MDA-MB-231 breast = tested on: MDA-MB-231 breast
# M14 melanoma = tested on: M14 melanoma
# RXF 393 renal = tested on: RXF 393 renal
# 786-0 renal = tested on: 786-0 renal
# NCI-H23 lung = tested on: NCI-H23 lung
# NCI/ADR-RES ovarian = tested on: NCI/ADR-RES ovarian
# UACC-257 melanoma = tested on: UACC-257 melanoma
# SF-295 CNS = tested on: SF-295 CNS
# SF-539 CNS = tested on: SF-539 CNS
# ACHN renal = tested on: ACHN renal
# SF-268 CNS = tested on: SF-268 CNS
# OVCAR-3 ovarian = tested on: OVCAR-3 ovarian
# SNB-75 CNS = tested on: SNB-75 CNS
# MDA-MB-468 breast = tested on: MDA-MB-468 breast
# EKVX NSCLC = tested on: EKVX NSCLC
# PC-3 prostate = tested on: PC-3 prostate
# COLO 205 colon = tested on: COLO 205 colon
# SK-MEL-28 melanoma = tested on: SK-MEL-28 melanoma
# HS 578T breast = tested on: HS 578T breast
# CAKI-1 renal = tested on: CAKI-1 renal
# SK-OV-3 ovarian = tested on: SK-OV-3 ovarian
# SK-MEL-2 melanoma = tested on: SK-MEL-2 melanoma
# SN12C renal = tested on: SN12C renal
# IGROV1 ovarian = tested on: IGROV1 ovarian
# U251 CNS = tested on: U251 CNS
# RPMI-8226 leukemia = tested on: RPMI-8226 leukemia
# NCI-H226 lung = tested on: NCI-H226 lung
# MDA-MB-435 = tested on: MDA-MB-435
# MOLT-4 leukemia = tested on: MOLT-4 leukemia
# HOP-62 NSCLC = tested on: HOP-62 NSCLC
# HCT-116 colon = tested on: HCT-116 colon
structure (smiles),measurement,setting,value
CCCCSc1nc(Nc2ccc(/C(C)=N/NC(N)=S)cc2)c(C#N)c(-c2ccc(OC)cc2)n1,GI50,MCF7 breast,17.1 µM
same,TGI,MCF7 breast,> 100 µM
same,GI50,SR leukemia,57.1 µM
same,TGI,SR leukemia,> 100 µM
same,GI50,HL-60(TB) leukemia,> 100 µM
same,TGI,HL-60(TB) leukemia,> 100 µM
same,GI50,SW-620 colon,> 100 µM
same,TGI,SW-620 colon,> 100 µM
same,GI50,OVCAR-4 ovarian,6.45 µM
same,TGI,OVCAR-4 ovarian,62.4 µM
same,GI50,MALME-3M melanoma,5.85 µM
same,TGI,MALME-3M melanoma,20 µM
same,GI50,KM12 colon,> 100 µM
same,TGI,KM12 colon,> 100 µM
same,GI50,NCI-H460 lung,9.33 µM
same,TGI,NCI-H460 lung,31.1 µM
same,GI50,T-47D breast,12.5 µM
same,TGI,T-47D breast,36.7 µM
same,GI50,K-562 leukemia,> 100 µM
same,TGI,K-562 leukemia,> 100 µM
same,GI50,NCI-H522 lung,13.9 µM
same,TGI,NCI-H522 lung,28.6 µM
same,GI50,OVCAR-5 ovarian,28.1 µM
same,TGI,OVCAR-5 ovarian,93.9 µM
same,GI50,HCC-2998 colon,78.4 µM
same,TGI,HCC-2998 colon,> 100 µM
same,GI50,UACC-62 melanoma,15.6 µM
same,TGI,UACC-62 melanoma,34.1 µM
same,GI50,DU-145 prostate,10.2 µM
same,TGI,DU-145 prostate,> 100 µM
same,GI50,SK-MEL-5 melanoma,3.61 µM
same,TGI,SK-MEL-5 melanoma,17 µM
same,GI50,HT29 colon,> 100 µM
same,TGI,HT29 colon,> 100 µM
same,GI50,A549 NSCLC,16.5 µM
same,TGI,A549 NSCLC,40.9 µM
same,GI50,LOX IMVI melanoma,3.9 µM
same,TGI,LOX IMVI melanoma,17.9 µM
same,GI50,A498 renal,10.6 µM
same,TGI,A498 renal,22.4 µM
same,GI50,TK-10 renal,13.8 µM
same,TGI,TK-10 renal,27.4 µM
same,GI50,OVCAR-8 ovarian,10.8 µM
same,TGI,OVCAR-8 ovarian,24 µM
same,GI50,UO-31 renal,2.81 µM
same,TGI,UO-31 renal,18.6 µM
same,GI50,CCRF-CEM leukemia,> 100 µM
same,TGI,CCRF-CEM leukemia,> 100 µM
same,GI50,SNB-19 CNS,14.3 µM
same,TGI,SNB-19 CNS,27.3 µM
same,GI50,HCT-15 colon,> 100 µM
same,TGI,HCT-15 colon,> 100 µM
same,GI50,HOP-92 NSCLC,5.36 µM
same,TGI,HOP-92 NSCLC,21.1 µM
same,GI50,BT-549 breast,6.55 µM
same,TGI,BT-549 breast,26.9 µM
same,GI50,MDA-MB-231 breast,2.27 µM
same,TGI,MDA-MB-231 breast,8.21 µM
same,GI50,M14 melanoma,8.52 µM
same,TGI,M14 melanoma,> 100 µM
same,GI50,RXF 393 renal,5.2 µM
same,TGI,RXF 393 renal,18.1 µM
same,GI50,786-0 renal,3.07 µM
same,TGI,786-0 renal,10.9 µM
same,GI50,NCI-H23 lung,6.46 µM
same,TGI,NCI-H23 lung,19 µM
same,GI50,NCI/ADR-RES ovarian,5.76 µM
same,TGI,NCI/ADR-RES ovarian,> 100 µM
same,GI50,UACC-257 melanoma,> 100 µM
same,TGI,UACC-257 melanoma,> 100 µM
same,GI50,SF-295 CNS,10.1 µM
same,TGI,SF-295 CNS,22.6 µM
same,GI50,SF-539 CNS,3.14 µM
same,TGI,SF-539 CNS,12.8 µM
same,GI50,ACHN renal,15.3 µM
same,TGI,ACHN renal,28.5 µM
same,GI50,SF-268 CNS,26 µM
same,TGI,SF-268 CNS,> 100 µM
same,GI50,OVCAR-3 ovarian,21.5 µM
same,TGI,OVCAR-3 ovarian,44.3 µM
same,GI50,SNB-75 CNS,10.4 µM
same,TGI,SNB-75 CNS,78.3 µM
same,GI50,MDA-MB-468 breast,18.1 µM
same,TGI,MDA-MB-468 breast,49.1 µM
same,GI50,EKVX NSCLC,56.4 µM
same,TGI,EKVX NSCLC,> 100 µM
same,GI50,PC-3 prostate,> 100 µM
same,TGI,PC-3 prostate,> 100 µM
same,GI50,COLO 205 colon,> 100 µM
same,TGI,COLO 205 colon,> 100 µM
same,GI50,SK-MEL-28 melanoma,35.8 µM
same,TGI,SK-MEL-28 melanoma,> 100 µM
same,GI50,HS 578T breast,2.78 µM
same,TGI,HS 578T breast,16.4 µM
same,GI50,CAKI-1 renal,18.3 µM
same,TGI,CAKI-1 renal,54.1 µM
same,GI50,SK-OV-3 ovarian,18 µM
same,TGI,SK-OV-3 ovarian,32.1 µM
same,GI50,SK-MEL-2 melanoma,26.3 µM
same,TGI,SK-MEL-2 melanoma,85.4 µM
same,GI50,SN12C renal,18.7 µM
same,TGI,SN12C renal,37 µM
same,GI50,IGROV1 ovarian,19.5 µM
same,TGI,IGROV1 ovarian,40 µM
same,GI50,U251 CNS,6.88 µM
same,TGI,U251 CNS,19.9 µM
same,GI50,RPMI-8226 leukemia,45.7 µM
same,TGI,RPMI-8226 leukemia,> 100 µM
same,GI50,NCI-H226 lung,11.9 µM
same,TGI,NCI-H226 lung,27.5 µM
same,GI50,MDA-MB-435,36.9 µM
same,TGI,MDA-MB-435,> 100 µM
same,GI50,MOLT-4 leukemia,> 100 µM
same,TGI,MOLT-4 leukemia,> 100 µM
same,GI50,HOP-62 NSCLC,15.6 µM
same,TGI,HOP-62 NSCLC,30.1 µM
same,GI50,HCT-116 colon,6.79 µM
same,TGI,HCT-116 colon,30 µM
